The values below come from article PMC10291553, “Exploring Structure–Activity Relationships in Photodynamic Therapy Anticancer Agents Based on Ir(III)-COUPY Conjugates” (Journal of Medicinal Chemistry, 2023).

Common to all, as to assay type: cell-based
Assay [1] concerns HeLa. The assay is described as follows: Photo- and cytotoxic activity determination (MTT), HeLa cells. The following applies: normoxia; for HeLa PI (phototherapeutic index), IC50 dark/IC50 irradiated: dark tested up to 100 μM. An excerpt: (§1) Having shown that the Ir(III)-COUPY conjugates can sensitize both type I and II ROS through spectroscopic techniques and readily internalize into living cells, their photocytotoxicity was screened in various cancer cell lines. This screening included two representative melanoma cell lines (human A375 and […] human SK-MEL-28) and cancer cells with resistance to the clinical drug cisplatin. For the latter, both sensitive and cisplatin-resistant ovarian cancer cells (A2780 and A2780cis) as well as HeLa cells, which also show a degree of chemoresistance to the platinum anticancer drug in vitro,[54] were used. For the determination of dark and light cytotoxicity, dose–response curves were assayed from both conditions to provide the correspondent IC50 values, which correspond to the concentration needed for inhibition of cell growth by 50%. Phototherapeutic index (PI) was calculated as the ratio of dark to light IC50 value for each compound.
A375, HeLa, and SK-MEL-28 cells were cultured in Dulbecco’s modified Eagle medium (DMEM) supplemented with 10% FBS, L-glutamine, and 1% penicillin–streptomycin. A2780 and A2780cis cells were grown in RPMI-1640 cell medium supplemented with 10% fetal bovine serum (FBS) and 2 mM L-glutamine. Acquired resistance to cisplatin in the A2780cis cell line was maintained by adding cisplatin 1 μM to culture medium every second passage. Cells were cultured in a humidified incubator at 310 K with 5% CO2 atmosphere and subcultured two or three times a week with appropriate densities and were confirmed to be mycoplasma-free using a standard Hoechst DNA staining method.
(§2) A2780, A2780cis, HeLa, A375, and SK-MEL-28 cells were maintained at logarithmic growth-phase and cultured in 96-well plates at a density of 5000 cells/well in complete medium for 24 h at 310 K, 5% CO2 in a humidified incubator. For hypoxia experiments, a hypoxia condition was set up by Tissue Culture Service at University of Murcia using nitrogen (N2) to displace O2 down to a minimum of 2% in a Forma Steri-Cycle i160 incubator (Thermo Fisher Scientific). Serial dilutions of the compounds were added at the final concentrations in the range of 0–100 μM in a final volume of 100 μL per well. A light-based treatment schedule was performed as follows: 1 h incubation with the compounds in the dark, followed by 1 h incubation under irradiation conditions by placing the Photoreactor EXPO-LED from Luzchem (Canada) fitted with green lamps (final light intensity applied of 1.5 mW/cm^2 at λmax = 520 nm) inside the CO2 incubator. All the cell culture plates subjected to light irradiation included untreated controls to verify that cell viability was not affected by light. Then, treatment-containing media was removed, and fresh media was added for a 48 h cell recovery period; the temperature throughout the experiment remained at 310 K. Dark control samples were placed in the same dark conditions and then kept incubated for 1 h in the dark in the humidified CO2 incubator. Medium was then aspirated by suction, cells were loaded with 50 μL of MTT solution (1 mg/mL) for additional 4 h and then removed, and 50 μL of DMSO was added to solubilize the purple formazan crystals formed in active cells. The absorbance was measured at 570 nm using a microplate reader (FLUOstar Omega), and the IC50 values were calculated based on the inhibitory rate curves using the following equation [drawing 4] 4 where I represents the percentage inhibition of viability observed, Imax is the maximal inhibitory effect, IC50 is the concentration that inhibits 50% of maximal growth, C is the concentration of the treatment, and n is the slope of the semi-logarithmic dose–response sigmoidal curves. The non-linear fitting was performed using SigmaPlot 14.0 software. All experiments were performed in three independent studies with n = 3 replicates per concentration level. For a detailed phototoxicity procedure, ref ([43]) includes technical explanations.

Assay [2] relates to A375, SK-MEL-28, HeLa, A2780 and A2780cis cancer cells. The assay is described as follows: Photo- and cytotoxicity, statements across the studied cancer cell lines. The following applies: for IC50: absence of light, regardless of the cell line, read-out: dark IC50 in the studied cancer cell lines.
From the text: as §1
as §2, with “4 where I represents the percentage inhibition of viability observed, Imax is the maximal inhibitory effect, IC50 is the concentration that inhibits 50% of maximal growth, C is the concentration of the treatment, and n is the slope of the semi-logarithmic dose–response sigmoidal curves. The non-linear fitting was performed using SigmaPlot 14.0 software. All experiments were performed in three independent studies with n = 3 replicates per concentration level. For a detailed phototoxicity procedure, ref ([43]) includes technical explanations.” left out

Assay [3] relates to A2780cis MCTS. Kind of assay: 3D multicellular tumor spheroid growth inhibition. The following applies: 10 μM, 4 h incubation; for spheroid shrinkage compared to irradiated controls: 1 h 520 nm; for tumor growth of A2780cis spheres after PDT treatment: 1 h 520 nm on day 3, followed 7 days. As to the method:
Briefly, a single suspension of A2780cis cells at a density of 5 × 10^3 cells/well in complete RPMI medium was dispatched onto 96-well Corning microplates with ultralow attachment surface coating. The plates were covered and transferred to an incubator at 310 K with a 5% CO2 atmosphere. After 3 days post-seeding, uniform MCTSs were formed, which was confirmed using an inverted Zeiss AXIO observer 7 microscope. Cell media of MCTSs was changed by replacing 50% with fresh cell media and allowed to grow for 3 days. On day 3, MTCS was incubated with tested agents (10 μM) for 4 h and then irradiated with 520 nm light for 1 h. Treatments were then carefully removed, and fresh media was added. The integrity, radius, size, and volume of the MCTSs were monitored using a DMi1 inverted phase contrast microscope (Leica Microsystems) over 7 days. The radius of the tumorspheres was measured using Fiji software, and the volume was calculated using the following equation: V = 4/3πr^3.

In assay [4] the test system is A2780cis cells. The assay is described as follows: Cell death induction (Annexin V/PI staining, FSC/SSC flow cytometry). The following applies: 10 μM; for mode of cell death (Annexin V/Propidium Iodide): 1 h + 1 h 520 nm, 24 h recovery; for secondary cell population with low FSC/SSC ratios (non-viable morphology): 1 h, 520 nm 1 h. As to the method:
Cell death induction was evaluated using the Annexin V-FITC/Propidium iodide (AV/PI) dual staining method. Briefly, A2780cis cells were seeded in 12-well plates at a density of 2 × 10^5 cells/well and incubated overnight at 310 K. Tested compounds (10 μM) were added, following the described treatment schedule (1 h incubation + 1 h irradiation with 520 nm light). Irradiated, non-treated cells served as the control group. After 24 h of the drug-free recovery period, cells were harvested by trypsinization, washed with PBS and centrifuged, and the pellets were resuspended in 200 μL of a binding buffer as instructed by the manufacturer (Cayman). The resuspended cell solution was left at room temperature in the dark for 15 min before analysis by flow cytometry (FACSCalibur BecktonDickinson; 10^4 events acquired per sample). Cells were visualized using λexc = 488 channels and registered at 525 nm and 620 nm for Annexin V and propidium iodide in FL1 and FL2 channels, respectively. Cell populations were classified as follows: AV^-/PI^- (viable cells); AV^-/PI^+ (necrotic cells); AV^+/PI^- and AV^+/PI^+ (apoptotic cells). Alternatively, A2780cis cells were subjected to flow cytometry after phototreatments and morphological changes were analyzed using FSC and SSC contour plots. Data were analyzed using FlowJo software. Three independent experiments were performed.
(In general: Flow cytometry measures light scatter and fluorescence of single cells or particles in a stream.)

[5] abbreviates: Homo sapiens, HeLa, 1 h incubation + 1 h green light 520 nm, 1.5 mW cm^–2, 48 h drug-free medium, read-out: HeLa light IC50.
The mark [6] stands for this setting: Homo sapiens, HeLa, kept in the dark, 2 h treatment, 48 h drug-free medium, read-out: HeLa dark IC50.
[7] abbreviates: 1 h incubation + 1 h green light 520 nm, 1.5 mW cm^–2, 48 h drug-free medium, read-out: HeLa light IC50.
Where [8] appears, read: kept in the dark, 2 h treatment, 48 h drug-free medium, read-out: HeLa dark IC50.

Like-named read-outs stand apart in the source and are kept apart here.

Usually IC50 stands for the midpoint of a concentration-inhibition curve. Take `CCN(CC)c1ccc2c(c1)O/C(=C(/C#N)c1cc[n+](C)cc1)C=C2C` [1a]: the results for the IC50 in assay [1] (setting [5]) and in assay [1] (setting [6]) were 5.8 ± 0.4 µM and greater than 100 µM, respectively. In addition, in assay [1] (520 nm), the “HeLa PI (phototherapeutic index), IC50 dark/IC50 irradiated” value (“HeLa PI (phototherapeutic index)” for short) is greater than 17. Moreover, the “fold differences in bioactivity upon irradiation” value in assay [2] (melanoma cells, 520 nm) is “more than 86 fold”.
`CCCCn1c2[n+](c3cc(C(=O)NCCCNC(=O)C[n+]4ccc(/C(C#N)=C5/C=C(C)c6ccc(N(CC)CC)cc6O5)cc4)ccc31)[Ir-3]13([c]4ccccc4-c4[nH]c5ccccc5[n+]41)([c]1ccccc1-c1[nH]c4ccccc4[n+]13)[n+]1c-2ccc2ccccc21` [3a]: the “HeLa PI (phototherapeutic index)” value in assay [1] (520 nm) is greater than 12. The concentration for half-maximal inhibition (IC50) in assay [1] (setting [7]) was 8.6 ± 0.7 µM. Besides, the IC50 in assay [1] (setting [8]) was greater than 100 µM. In addition, in assay [3], the “spheroid shrinkage compared to irradiated controls” value is on record as “statistically significant shrank” and the “tumor growth of A2780cis spheres after PDT treatment” value (shortened to “tumor growth of A2780cis spheres”) is “effectively blocked tumoral growth”. Further, in assay [4], the “mode of cell death (Annexin V/Propidium Iodide)” value (“mode of cell death” below) was “photoinduced necrotic cell death” and the “secondary cell population with low FSC/SSC ratios (non-viable morphology)” value is “vastly induced these secondary cell populations”.
Take `CC1=C/C(=C(\C#N)c2cc[n+](C)cc2)Oc2c1cc1c3c2CCCN3CCC1` [1c]: the figures for the IC50 in assay [1] (setting [5]), in assay [1] (setting [6]) and in assay [2] were 1.1 ± 0.8 µM, 26 ± 4 µM and 5 to 26 µM, respectively. Besides, the “HeLa PI (phototherapeutic index)” value in assay [1] (520 nm) worked out at 24.
Consider `CCCCn1c2[n+](c3cc(C(=O)NCCCNC(=O)C[n+]4ccc(/C(C#N)=C5/C=C(C)c6ccccc6O5)cc4)ccc31)[Ir-3]13([c]4ccccc4-c4[nH]c5ccccc5[n+]41)([c]1ccccc1-c1[nH]c4ccccc4[n+]13)[n+]1c-2ccc2ccccc21` [3b], for which the “HeLa PI (phototherapeutic index)” value in assay [1] (520 nm) is greater than 6. The half-inhibitory concentration (IC50) was 18 ± 2 µM in assay [1] (setting [7]) and greater than 100 µM in assay [1] (setting [8]). Also, the “tumor growth of A2780cis spheres” value in assay [3] was “did not show significant tumor inhibition effects”. In addition, the “secondary cell population with low FSC/SSC ratios (non-viable morphology)” value in assay [4] is recorded as “did not produce such changes”.
With `CC1=C/C(=C(\C#N)c2cc[n+](C)cc2)Oc2ccccc21` [1b], the IC50 in assay [1] (Homo sapiens, HeLa, 520 nm, read-out: HeLa Light 520 nm IC50 (microM) Normoxia) is greater than 100 µM; in assay [1] (setting [5]), greater than 100 µM; in assay [1] (Homo sapiens, HeLa, dark, read-out: HeLa Dark IC50 (microM) Normoxia), greater than 100 µM; in assay [1] (setting [6]) it was greater than 100 µM. Moreover, the “antiproliferative activity after light irradiation” value in assay [2] (520 nm, investigated cancer cells) is recorded as “did not display antiproliferative activity after light irradiation”.
Consider `CCCCn1c2[n+](c3cc(C(=O)NCCCNC(=O)C[n+]4ccc(/C(C#N)=C5/C=C(C)c6cc7c8c(c6O5)CCCN8CCC7)cc4)ccc31)[Ir-3]13([c]4ccccc4-c4[nH]c5ccccc5[n+]41)([c]1ccccc1-c1[nH]c4ccccc4[n+]13)[n+]1c-2ccc2ccccc21` [3c], for which the “HeLa PI (phototherapeutic index)” value in assay [1] (520 nm) is on record as greater than 2.2. The figures for the IC50 in assay [1] (setting [7]), in assay [1] (setting [8]) and in assay [2] were 45 ± 4 µM, greater than 100 µM and greater than 100 µM, respectively. The “tumor growth of A2780cis spheres” value in assay [3] is given as “did not show significant tumor inhibition effects”. Besides, the “mode of cell death” value in assay [4] is given as “photoinduced necrotic cell death”. Also, the “secondary cell population with low FSC/SSC ratios (non-viable morphology)” value in assay [4] is “vastly induced these secondary cell populations”.
Consider `CCCCn1c2[n+](c3cc(C(=O)NCCCCCC(=O)NCCCNC(=O)C[n+]4ccc(/C(C#N)=C5/C=C(C)c6ccc(N(CC)CC)cc6O5)cc4)ccc31)[Ir-3]13([c]4ccccc4-c4[nH]c5ccccc5[n+]41)([c]1ccccc1-c1[nH]c4ccccc4[n+]13)[n+]1c-2ccc2ccccc21` [3d], for which, in assay [1] (520 nm), the “HeLa PI (phototherapeutic index)” value is listed as greater than 50. In addition, the IC50 in assay [1] (setting [7]) came out at 2 ± 0.4 µM. For the same compound, the IC50 in assay [1] (setting [8]) is greater than 100 µM. Further, in assay [3], the “tumor growth of A2780cis spheres” value is recorded as “effectively blocked tumoral growth”. Further, in assay [4], the “mode of cell death” value is “photoinduced necrotic cell death” and the “secondary cell population with low FSC/SSC ratios (non-viable morphology)” value is reported as “vastly induced these secondary cell populations”.
As to `CCCCn1c2[n+](c3cc(C(=O)NC[C@H]4CC[C@H](C(=O)NCCCNC(=O)C[n+]5ccc(/C(C#N)=C6/C=C(C)c7ccc(N(CC)CC)cc7O6)cc5)CC4)ccc31)[Ir-3]13([c]4ccccc4-c4[nH]c5ccccc5[n+]41)([c]1ccccc1-c1[nH]c4ccccc4[n+]13)[n+]1c-2ccc2ccccc21` [3e], the “HeLa PI (phototherapeutic index)” value in assay [1] (520 nm) is greater than 11. For the same compound, the IC50 in assay [1] (setting [7]) came out at 9.3 ± 0.8 µM. The IC50 in assay [1] (setting [8]) was greater than 100 µM. Moreover, in assay [3], the “spheroid shrinkage compared to irradiated controls” value is on record as “statistically significant shrank” and the “tumor growth of A2780cis spheres” value is reported as “effectively blocked tumoral growth”. In addition, in assay [4], the “mode of cell death” value was “photoinduced necrotic cell death” and the “secondary cell population with low FSC/SSC ratios (non-viable morphology)” value is recorded as “vastly induced these secondary cell populations”.
Consider `CCCCn1c2[n+](c3cc(C(=O)OC)ccc31)[Ir-3]13([c]4ccccc4-c4[nH]c5ccccc5[n+]41)([c]1ccccc1-c1[nH]c4ccccc4[n+]13)[n+]1c-2ccc2ccccc21` [2a], for which the “HeLa PI (phototherapeutic index)” value in assay [1] (520 nm) is greater than 1.3. Besides, the results for the IC50 in assay [1] (setting [7]) and in assay [1] (setting [8]) were 75 ± 6 µM and greater than 100 µM, respectively.
